Results: patent US20240051954A1, “PYRROLO[3,2-B]PYRIDINE DERIVATIVES USEFUL IN TREATING CONDITIONS ASSOCIATED WITH CGAS” (NOVARTIS AG, priority 2020, published 2024)

Target: human truncated cGAS enzyme (147-522 human cGAS) (Homo sapiens (Human), UniProt Q8N884)
Test: Quantification of cGAS protein inhibition (cGAMP formation, LC-MS/MS)
Format: biochemical
Conditions: 30 nM enzyme, 45 bp dsDNA (ISD) 5 μM, GTP and ATP 0.5 mM each, 1 h at room temperature; potential mixture of co-existing tautomers and/or racemates
Protocol: Example 52: Quantification of cGAS Protein Inhibition
A reagent buffer was prepared in filtered and autoclaved water according to the following: • 50 mM Tris-buffer pH 7.5 (1 M Tris-buffer pH 7.5, Invitrogen, Cat. No. 15567-027); • 50 mM NaCl (5 M NaCl, Sodium Chloride Solution, Sigma, 59222C-); • 5 mM MgCl2 (1 M MgCl2, Sigma, M1028); • 0.1 mM ZnCl2 (Zinc Chloride [7646-85-7], powder, Cell Culture Tested, Sigma, Z-0152); and • 0.001% Tween 20 (TWEEN 20, Sigma Aldrich, P1379-).
A buffer for the cGAS enzyme was prepared in filtered and autoclaved water according to the following: • 50 mM Tris-buffer pH 7.5; • 5 mM MgCl2; and • 0.001% Tween 20.
Compounds were dispensed to a […]. The human truncated cGAS enzyme (4.2 mg/mL 147-522 human cGAS, MW 43,909 g/mol) was stored in 50 mM Tris, 500 mM NaCl, 5% (v/v) glycerol at pH 8 and diluted in the cGAS buffer enzyme shortly before use. The enzyme solution was transferred into the reagent buffer to give a final concentration of 30 nM. The reaction was started by mixing the enzyme with ISD (a 45 bp double stranded DNA, MW 27,670 g/mol, 5 mM), GTP and ATP to a final concentration of 5 μM, 0.5 mM and 0.5 mM respectively in a final volume of 10 μl. The reaction plates were then centrifuged at 1000 rpm for 1 minute and incubated at room temperature for 1 h. After 1 h of incubation, [^15N5]-2′3′-cGAMP to a final concentration of 200 nM and 30 μL of 100% acetonitrile/0.175% of TFA were added to the reaction mixture. The plates were centrifuged at 1000 rpm for 1 minute before being sealed for 3 seconds at 170° C. using a ThermoScientific sealer (ALPS™ 50V) and an aluminum sealing cover (Pierce Seal, 4titude, Product Code: 4TI-0531).
The concentration of cGAMP was measured on a LC-MS/MS system consisting of a THERMO Dionex Ultimate LC system with a high pressure pump, an autosampler, a column heating compartment (Reinach, Switzerland) and a SCIEX Triple Quad 5500 (Framingham, MA, USA) mass spectrometer for detection. The sample plates were centrifuged for 10 minutes at 2000 rpm. Up to three plates were placed in the autosampler for injection. An aliquot of 10 μL of each sample was injected on an XBridge BEH Amide 3.5 μm, 2.1×50 mm column (P/N 186004859) with an XBridge BEH Amide 5 μm 2.1×5 mm VanGuard Cartridge (P/N 186007760) pre-column (both WATERS, MA, USA) held at 40° C. An isocratic flow of 1.0 mL/min solvent (60% ACN, 8 mM ammonium acetate, 5 mM ammonium hydroxide, 0.04% acetic acid) was applied and sprayed into the ion source of the mass spectrometers. The MS parameters were optimized based on the properties of the compounds to be detected and run in positive multi-reaction mode (MRM) based on the mass transitions. LC and MS parameters were also optimized to allow for a sample-to-sample measuring time of approximately 75 sec and a run time of 8 hours per 384-well plate. All data were analyzed with Excel; and the dose response curves were generated using the auto fitting function of XLfit. The IC50 was determined by plotting the cGAMP concentration ratio (cGAMP divided by the internal standard [^15N5]-2′3′-cGAMP) versus the concentration of compound.

human truncated cGAS enzyme (147-522 human cGAS), sequence (Q8N884 147-522): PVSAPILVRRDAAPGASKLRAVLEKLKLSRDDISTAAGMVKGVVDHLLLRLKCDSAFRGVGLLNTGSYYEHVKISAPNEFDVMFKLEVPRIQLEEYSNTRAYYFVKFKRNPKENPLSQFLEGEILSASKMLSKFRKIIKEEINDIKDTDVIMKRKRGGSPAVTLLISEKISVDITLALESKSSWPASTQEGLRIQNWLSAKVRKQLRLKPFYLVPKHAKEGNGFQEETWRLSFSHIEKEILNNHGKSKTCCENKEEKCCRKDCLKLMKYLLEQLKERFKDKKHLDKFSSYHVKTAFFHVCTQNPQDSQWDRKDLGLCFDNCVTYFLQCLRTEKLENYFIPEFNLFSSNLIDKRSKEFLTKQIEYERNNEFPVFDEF

Row | Structure (SMILES) | IC50
1 | COCC(c1nnc(-c2c(-n3ccnc3)c3nc(OC)c(Cl)cc3n2C)[nH]1)N(C)C (centres unmarked) [Example 36, 1-(5-(6-chloro-3-(1H-imidazol-1-yl)-5-methoxy-1-methyl-1H-pyrrolo[3,2-b]pyridin-2-yl)-4H-1,2,4-triazol-3-yl)-2-methoxy-N,N-dimethylethan-1-amine] | 454 nM
2 | COc1nc2c(-n3ccnc3)c(-c3nnc(C(=O)N(C)C)[nH]3)n(C)c2cc1Cl [Example 17, 5-(6-chloro-3-(1H-imidazol-1-yl)-5-methoxy-1-methyl-1H-pyrrolo[3,2-b]pyridin-2-yl)-N,N-dimethyl-4H-1,2,4-triazole-3-carboxamide] | 116 nM
3 | COCC(O)c1nnc(-c2c(-n3ccnc3)c3nc(OC)c(Cl)cc3n2C)[nH]1 (centres unmarked) [Example 29, 1-(5-(6-chloro-3-(1H-imidazol-1-yl)-5-methoxy-1-methyl-1H-pyrrolo[3,2-b]pyridin-2-yl)-4H-1,2,4-triazol-3-yl)-2-methoxyethan-1-ol] | 295 nM
4 | Cn1c(-c2nnc(C(F)(F)F)[nH]2)c(-c2cn[nH]c2)c2nc(O)c(Cl)cc21 [Example 50, 6-chloro-1-methyl-3-(1H-pyrazol-4-yl)-2-(5-(trifluoromethyl)-4H-1,2,4-triazol-3-yl)-1H-pyrrolo[3,2-b]pyridin-5-ol] | 741 nM
5 | COc1nc2c(-n3ccnc3)c(-c3nnc(C(F)(F)F)[nH]3)n(C)c2cc1Cl [Example 45] | 384 nM
6 | COc1nc2c(-n3ccnc3)c(-c3nnc(CN(C)C)[nH]3)n(C)c2cc1Cl [Example 51, 1-(5-(6-chloro-3-(1H-imidazol-1-yl)-5-methoxy-1-methyl-1H-pyrrolo[3,2-b]pyridin-2-yl)-4H-1,2,4-triazol-3-yl)-N,N-dimethylmethanamine] | 308 nM
7 | COc1nc2c(-c3cn[nH]c3)c(-c3nnc[nH]3)n(C)c2cc1Cl [Example 14, 6-chloro-5-methoxy-1-methyl-3-(1H-pyrazol-4-yl)-2-(4H-1,2,4-triazol-3-yl)-1H-pyrrolo[3,2-b]pyridine] | 3520 nM
8 | COCC(c1nnc(-c2c(-c3cn[nH]c3)c3nc(OC)c(Cl)cc3n2C)[nH]1)N(C)C (centres unmarked) [Example 37, 1-(5-(6-chloro-5-methoxy-1-methyl-3-(1H-pyrazol-4-yl)-1H-pyrrolo[3,2-b]pyridin-2-yl)-4H-1,2,4-triazol-3-yl)-2-methoxy-N,N-dimethylethan-1-amine] | 123 nM
9 | COc1nc2c(-n3ccnc3)c(-c3nnc(F)[nH]3)n(C)c2cc1Cl [Example 33, 6-chloro-2-(5-fluoro-4H-1,2,4-triazol-3-yl)-3-(1H-imidazol-1-yl)-5-methoxy-1-methyl-1H-pyrrolo[3,2-b]pyridine] | 332 nM
10 | COc1nc2c(-c3cn[nH]c3)c(-c3nnc(F)[nH]3)n(C)c2cc1Cl [Example 9, 6-chloro-2-(5-fluoro-4H-1,2,4-triazol-3-yl)-5-methoxy-1-methyl-3-(1H-pyrazol-4-yl)-1H-pyrrolo[3,2-b]pyridine] | 267 nM
11 | COCC(F)(F)c1nnc(-c2c(-n3ccnc3)c3nc(OC)c(Cl)cc3n2C)[nH]1 [Example 30, 6-chloro-2-(5-(1,1-difluoro-2-methoxyethyl)-4H-1,2,4-triazol-3-yl)-3-(1H-imidazol-1-yl)-5-methoxy-1-methyl-1H-pyrrolo[3,2-b]pyridine] | 186 nM

Compounds with a lower IC50, results first:

Row | IC50 | Structure (SMILES)
12 | 80 nM | COc1nc2c(-n3ccnc3)c(-c3nnc(C(F)(F)F)[nH]3)[nH]c2cc1Cl [Example 46, 6-chloro-3-(1H-imidazol-1-yl)-5-methoxy-2-(5-(trifluoromethyl)-4H-1,2,4-triazol-3-yl)-1H-pyrrolo[3,2-b]pyridine]
13 | 30 nM | COc1nc2c(-c3cn[nH]c3)c(-c3nnc(C(=O)N(C)C)[nH]3)[nH]c2cc1Cl [Example 16, 5-(6-chloro-5-methoxy-3-(1H-pyrazol-4-yl)-1H-pyrrolo[3,2-b]pyridin-2-yl)-N,N-dimethyl-4H-1,2,4-triazole-3-carboxamide]
14 | 101 nM | COc1nc2c(-n3ccnc3)c(-c3nnc(/C(C)=N/OCCO)[nH]3)n(C)c2cc1Cl [Example 40, (E/Z)-1-(5-(6-chloro-3-(1H-imidazol-1-yl)-5-methoxy-1-methyl-1H-pyrrolo[3,2-b]pyridin-2-yl)-4H-1,2,4-triazol-3-yl)ethan-1-one O-(2-hydroxyethyl)oxime]
15 | 107 nM | COc1nc2c(-n3ccnc3)c(-c3nnc(C(OC)C(F)(F)F)[nH]3)n(C)c2cc1Cl (centres unmarked) [Example 26, 6-chloro-3-(1H-imidazol-1-yl)-5-methoxy-1-methyl-2-(5-(2,2,2-trifluoro-1-methoxyethyl)-4H-1,2,4-triazol-3-yl)-1H-pyrrolo[3,2-b]pyridine]
16 | 66 nM | COc1nc2c(-c3cn[nH]c3)c(-c3nnc(C(C)=O)[nH]3)[nH]c2cc1Cl [Example 6, 1-(5-(6-chloro-5-methoxy-3-(1H-pyrazol-4-yl)-1H-pyrrolo[3,2-b]pyridin-2-yl)-4H-1,2,4-triazol-3-yl)ethan-1-one]
17 | 32 nM | COc1nc2c(-c3cn[nH]c3)c(-c3nnc(C(C)(F)F)[nH]3)[nH]c2cc1Cl [Example 3, 6-chloro-2-(5-(1,1-difluoroethyl)-4H-1,2,4-triazol-3-yl)-5-methoxy-3-(1H-pyrazol-4-yl)-1H-pyrrolo[3,2-b]pyridine]
18 | 76 nM | COc1nc2c(-c3cn[nH]c3)c(-c3nnc(C(F)(F)F)[nH]3)n(C)c2cc1Cl [Example 1, 6-chloro-5-methoxy-1-methyl-3-(1H-pyrazol-4-yl)-2-(5-(trifluoromethyl)-4H-1,2,4-triazol-3-yl)-1H-pyrrolo[3,2-b]pyridine]
19 | 66 nM | COc1nc2c(-c3cn[nH]c3)c(-c3nnc(C(C)=O)[nH]3)n(C)c2cc1Cl [Example 42, 1-(5-(6-chloro-5-methoxy-1-methyl-3-(1H-pyrazol-4-yl)-1H-pyrrolo[3,2-b]pyridin-2-yl)-4H-1,2,4-triazol-3-yl)ethan-1-one]
20 | 98 nM | COc1nc2c(-c3cn[nH]c3)c(-c3nnc(C(=O)N(C)C)[nH]3)n(C)c2cc1Cl [Example 43, 5-(6-chloro-5-methoxy-1-methyl-3-(1H-pyrazol-4-yl)-1H-pyrrolo[3,2-b]pyridin-2-yl)-N,N-dimethyl-4H-1,2,4-triazole-3-carboxamide]
